From patent US12630600B2 (MEDIMMUNE LIMITED, priority 2022, dated 2026)
Starred links: 1 amine or outer side, 2 acyl side, 3 side chain; linkers in the order of their positions; H or OH if unused. Non-standard residues stand in square brackets, D forms with d. Residues, ends and D or L forms follow the SMILES beside them. Groups on a side chain read outwards from the residue. *: point of attachment. C20 diacid = O=C(O)CCCCCCCCCCCCCCCCCCC(=O)*; C18 diacid = O=C(O)CCCCCCCCCCCCCCCCC(=O)*; γGlu = O=C(O)[C@H](CCC(=O)[*:2])N[*:1]; αMeF = C[C@](N)(Cc1ccccc1)C(=O)O; PEG2 = NCCOCCOCCC(=O)O; AEEA = NCCOCCOCC(=O)O; Aib = CC(C)(N)C(=O)O

Biological target: T1, human GLP-1 receptor (hGLP-1R) (Homo sapiens, UniProt P43220)
T1 construct: expressed in transfected cells; host or cells: CHO
T1 sequence (P43220 24-463): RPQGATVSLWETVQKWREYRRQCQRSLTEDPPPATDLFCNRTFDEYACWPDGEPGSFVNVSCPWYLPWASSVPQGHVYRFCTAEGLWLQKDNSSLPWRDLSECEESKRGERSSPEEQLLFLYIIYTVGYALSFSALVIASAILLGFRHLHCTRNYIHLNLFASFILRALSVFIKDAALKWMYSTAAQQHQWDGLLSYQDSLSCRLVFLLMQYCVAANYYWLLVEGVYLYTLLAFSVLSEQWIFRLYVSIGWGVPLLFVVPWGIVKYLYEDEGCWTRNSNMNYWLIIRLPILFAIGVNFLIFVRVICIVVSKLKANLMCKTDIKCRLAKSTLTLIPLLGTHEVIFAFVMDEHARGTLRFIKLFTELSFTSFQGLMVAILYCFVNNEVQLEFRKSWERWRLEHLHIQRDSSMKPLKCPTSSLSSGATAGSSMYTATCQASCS
Test: cAMP production (HTRF) in CHO cells expressing human GLP-1 receptor
Assay type: cell-based
Conditions: Table 8; % GLP-1R activity relative to GLP-1 / % GlucR activity relative to glucagon

Molecule | % Relative Potency Ratio
CC[C@H](C)[C@H](NC(=O)C(C)(C)NC(=O)[C@H](CCCCNC(=O)COCCOCCNC(=O)COCCOCCNC(=O)CC[C@H](NC(=O)CCCCCCCCCCCCCCCCC(=O)O)C(=O)O)NC(=O)[C@@H](NC(=O)[C@](C)(Cc1ccccc1)NC(=O)[C@H](CC(=O)O)NC(=O)[C@H](CCC(N)=O)NC(=O)[C@H](C)NC(=O)[C@H](C)NC(=O)[C@H](CCC(N)=O)NC(=O)[C@H](CO)NC(=O)[C@H](CC(=O)O)NC(=O)[C@H](CC(C)C)NC(=O)[C@](C)(Cc1ccccc1)NC(=O)[C@H](CCCCN)NC(=O)[C@H](CO)NC(=O)[C@@H](NC(=O)[C@H](CC(=O)O)NC(=O)[C@H](CO)NC(=O)[C@@H](NC(=O)[C@](C)(Cc1ccccc1)NC(=O)[C@H](CO)NC(=O)CNC(=O)[C@H](Cc1c[nH]cn1)NC(=O)C(C)(C)NC(=O)[C@@H](N)Cc1c[nH]cn1)[C@@H](C)O)C(C)C)C(C)C)C(=O)N[C@@H](C)C(=O)N[C@@H](CC(N)=O)C(=O)N[C@H](C(N)=O)[C@@H](C)O [Peptide 383] (H-H[Aib]HGS[αMeF]TSDVSK[αMeF]LDSQAAQD[αMeF]VK([AEEA-AEEA-γGlu-C18 diacid])[Aib]IANT-NH2; N-terminus assumed) | 2.3
CC[C@H](C)[C@H](NC(=O)[C@H](Cc1c[nH]c2ccccc12)NC(=O)[C@H](CCCCNC(=O)CC[C@H](NC(=O)CCCCCCCCCCCCCCCCC(=O)O)C(=O)O)NC(=O)[C@@H](NC(=O)[C@H](Cc1ccccc1)NC(=O)[C@H](CC(=O)O)NC(=O)[C@H](CCC(N)=O)NC(=O)[C@H](C)NC(=O)[C@H](C)NC(=O)[C@H](CCC(N)=O)NC(=O)[C@H](CO)NC(=O)[C@H](CC(=O)O)NC(=O)[C@H](CC(C)C)NC(=O)[C@](C)(Cc1ccccc1)NC(=O)[C@H](CCCCN)NC(=O)[C@H](CO)NC(=O)[C@@H](NC(=O)[C@H](CC(=O)O)NC(=O)[C@H](CO)NC(=O)[C@@H](NC(=O)[C@](C)(Cc1ccccc1)NC(=O)[C@H](CO)NC(=O)CNC(=O)[C@H](Cc1c[nH]cn1)NC(=O)C(C)(C)NC(=O)[C@@H](N)Cc1c[nH]cn1)[C@@H](C)O)C(C)C)C(C)C)C(=O)N[C@@H](C)C(=O)N[C@@H](CC(N)=O)C(=O)N[C@H](C(N)=O)[C@@H](C)O [Peptide 351] (H-H[Aib]HGS[αMeF]TSDVSK[αMeF]LDSQAAQDFVK([γGlu-C18 diacid])WIANT-NH2) | 0.7
CC[C@H](C)[C@H](NC(=O)[C@H](Cc1c[nH]c2ccccc12)NC(=O)[C@H](CCCCNC(=O)COCCOCCNC(=O)COCCOCCNC(=O)CC[C@H](NC(=O)CCCCCCCCCCCCCCCCCCC(=O)O)C(=O)O)NC(=O)[C@@H](NC(=O)[C@H](Cc1ccccc1)NC(=O)[C@H](CC(=O)O)NC(=O)[C@H](CCC(N)=O)NC(=O)[C@H](C)NC(=O)C(C)(C)NC(=O)[C@H](CCCNC(=N)N)NC(=O)[C@H](CO)NC(=O)[C@H](CC(=O)O)NC(=O)[C@H](CC(C)C)NC(=O)[C@](C)(Cc1ccccc1)NC(=O)[C@H](CCCCN)NC(=O)[C@H](CO)NC(=O)[C@@H](NC(=O)[C@H](CC(=O)O)NC(=O)[C@H](CO)NC(=O)[C@@H](NC(=O)[C@](C)(Cc1ccccc1)NC(=O)[C@H](CO)NC(=O)CNC(=O)[C@H](Cc1c[nH]cn1)NC(=O)C(C)(C)NC(=O)[C@@H](N)Cc1c[nH]cn1)[C@@H](C)O)C(C)C)C(C)C)C(=O)N[C@@H](C)C(=O)N[C@@H](CC(N)=O)C(=O)N[C@H](C(N)=O)[C@@H](C)O [Peptide 368, H(Aib)HGS(αMePhe)TSDVSK(αMePhe)LDSR(Aib)AQDFVK(O2OC-O2OC-γE-C20diacid)24WIANT-amide] (H-H[Aib]HGS[αMeF]TSDVSK[αMeF]LDSR[Aib]AQDFVK([AEEA-AEEA-γGlu-C20 diacid])WIANT-NH2; N-terminus assumed) | 3.1
CC[C@H](C)[C@H](NC(=O)[C@H](Cc1c[nH]c2ccccc12)NC(=O)[C@H](CCCCNC(=O)CC[C@H](NC(=O)CCCCCCCCCCCCCCCCCCC(=O)O)C(=O)O)NC(=O)[C@@H](NC(=O)[C@H](Cc1ccccc1)NC(=O)[C@H](CC(=O)O)NC(=O)[C@H](CCC(N)=O)NC(=O)[C@H](C)NC(=O)[C@H](C)NC(=O)[C@H](CCC(N)=O)NC(=O)[C@H](CO)NC(=O)[C@H](CC(=O)O)NC(=O)[C@H](CC(C)C)NC(=O)[C@](C)(Cc1ccccc1)NC(=O)[C@H](CCCCN)NC(=O)[C@H](CO)NC(=O)[C@@H](NC(=O)[C@H](CC(=O)O)NC(=O)[C@H](CO)NC(=O)[C@@H](NC(=O)[C@H](Cc1ccccc1)NC(=O)[C@@H](NC(=O)CNC(=O)[C@H](Cc1c[nH]cn1)NC(=O)C(C)(C)NC(=O)[C@@H](N)Cc1c[nH]cn1)[C@@H](C)O)[C@@H](C)O)C(C)C)C(C)C)C(=O)N[C@@H](C)C(=O)N[C@@H](CC(N)=O)C(=O)N[C@H](C(N)=O)[C@@H](C)O [Peptide 347] | 0.2
CC[C@H](C)[C@H](NC(=O)[C@H](Cc1c[nH]c2ccccc12)NC(=O)[C@H](CCCCNC(=O)CCOCCOCCNC(=O)CCOCCOCCNC(=O)CC[C@H](NC(=O)CC[C@H](NC(=O)CCCCCCCCCCCCCCCCC(=O)O)C(=O)O)C(=O)O)NC(=O)[C@@H](NC(=O)[C@H](Cc1ccccc1)NC(=O)[C@H](CC(=O)O)NC(=O)[C@H](CCC(N)=O)NC(=O)[C@H](C)NC(=O)[C@H](C)NC(=O)[C@H](CCC(N)=O)NC(=O)[C@H](CO)NC(=O)[C@H](CC(=O)O)NC(=O)[C@H](CC(C)C)NC(=O)[C@](C)(Cc1ccccc1)NC(=O)[C@H](CCCCN)NC(=O)[C@H](CO)NC(=O)[C@@H](NC(=O)[C@H](CC(=O)O)NC(=O)[C@H](CO)NC(=O)[C@@H](NC(=O)[C@](C)(Cc1ccccc1)NC(=O)[C@H](CO)NC(=O)CNC(=O)[C@H](Cc1c[nH]cn1)NC(=O)C(C)(C)NC(=O)[C@@H](N)Cc1c[nH]cn1)[C@@H](C)O)C(C)C)C(C)C)C(=O)N[C@@H](C)C(=O)N[C@@H](CC(N)=O)C(=O)N[C@H](C(N)=O)[C@@H](C)O [Peptide 352] (H-H[Aib]HGS[αMeF]TSDVSK[αMeF]LDSQAAQDFVK([PEG2-PEG2-γGlu-γGlu-C18 diacid])WIANT-NH2) | 1.4
CC[C@H](C)[C@H](NC(=O)[C@H](Cc1c[nH]c2ccccc12)NC(=O)[C@H](CCCCNC(=O)COCCOCCNC(=O)COCCOCCNC(=O)CC[C@H](NC(=O)CCCCCCCCCCCCCCCCCCC(=O)O)C(=O)O)NC(=O)[C@@H](NC(=O)[C@H](Cc1ccccc1)NC(=O)[C@H](CC(=O)O)NC(=O)[C@H](CCC(N)=O)NC(=O)[C@H](C)NC(=O)[C@H](C)NC(=O)[C@H](CCC(N)=O)NC(=O)[C@H](CO)NC(=O)[C@H](CC(=O)O)NC(=O)[C@H](CC(C)C)NC(=O)[C@](C)(Cc1ccccc1)NC(=O)[C@H](CCCCN)NC(=O)[C@H](CO)NC(=O)[C@@H](NC(=O)[C@H](CC(=O)O)NC(=O)[C@H](CO)NC(=O)[C@@H](NC(=O)[C@](C)(Cc1ccccc1)NC(=O)[C@H](CO)NC(=O)CNC(=O)[C@H](Cc1c[nH]cn1)NC(=O)C(C)(C)NC(=O)[C@@H](N)Cc1c[nH]cn1)[C@@H](C)O)C(C)C)C(C)C)C(=O)N[C@@H](C)C(=O)N[C@@H](CC(N)=O)C(=O)N[C@H](C(N)=O)[C@@H](C)O [Peptide 356] (H-H[Aib]HGS[αMeF]TSDVSK[αMeF]LDSQAAQDFVK([AEEA-AEEA-γGlu-C20 diacid])WIANT-NH2) | 2.1

Same assay, conditions: Table 9; % GLP-1R activity relative to GLP-1 / % GlucR activity relative to glucagon

Molecule | % Relative Potency Ratio
H(Aib)HGS(αMePhe)TSDK(O2OC-O2OC-γE-γE-C20diacid)10SK(αMePhe)LDSRAAQD(αMePhe)VQ(Aib)IANT-amide [Peptide 391] | 49.1
HSQGS(αMePhe)TSDK((PEG)2-(PEG)2-γE-γE-Palmitoyl)10SK(Dip)LDS(ß-dimethylArg)AAQD(αMePhe)VE(Aib)LANT-amide [Peptide 394] | 7.3
